Where “and” joins values, the source holds several entries; their conditions need not be identical. Identical values can stand only once.
Tests used:
Format in all cases: in vivo, human
[1] = test system: post-operative adult patients; assay: Example 2: patient self-assessment of pain, VAS at rest; settings: 800 mg
[2] = test system: post-operative adult patients; assay: Example 2: time to GI motility, ambulation, liquid intake, solid diet, length of hospital stay; settings: 800 mg; for Time to GI motility: value + SD
Protocol: To evaluate the secondary objective of determining whether the addition of IVIb reduces the incidence of opioid related side-effects, the following endpoints were measured: (a) GI motility as assessed by return of bowel sounds, flatulence, or bowel movement (b) Combined Safety Assessment (occurrence of any of the following during the 48 hour treatment period received a rating of one: diffuse pruritus, overt respiratory depression requiring treatment; the combined total and individual incidences were evaluated), need for post-operative urinary indwelling catheter (after initial removal of surgical catheter), incidence of post-operative vomiting or need for anti-emetic medication, Richmond Agitation Sedation Scale (<−3), (c) Resumption of ambulation, (d) Resumption of liquid intake and solid diet, and (e) Length of hospital stay.

[3] = test system: patients undergoing orthopedic surgical procedures; assay: Example 3: additional measurements of efficacy; settings: 800 mg
Description: Additional measurements of efficacy were incidence of treatment failure, time to GI motility, time to resumption of ambulation, time to resumption of liquid intake, time to resumption of solid diet, and length of hospital stay.

[4] = test system: post-operative adult patients; assay: Example 2: adverse events; settings: 800 mg
Protocol: Patients were evaluated and compared for morphine requirements between the active doses and placebo using analysis of variance and covariance procedures at an overall alpha level of 0.05. Secondary efficacy parameters were also evaluated and compared among the treatment groups using appropriate statistical methods described in the statistical analysis section of the protocol. Safety information was compared between the treatment groups using Chi-Square or Cochran-Mantel-Haenszel test. Demographic, background and baseline information among the treatment groups was also described.

[5] = test system: post-operative adult patients; assay: Example 1: morphine usage in the 24 hours following surgery
Protocol: The reference product, dose and mode of administration was normal saline, 100 ml, intravenous. Saline was chosen as the control group (placebo) for this study, to ensure blinding and allow for analysis of treatment effect. The duration of treatment was up to 5 days post surgery. […] Groups were stratified according to two age groups: <45 and >45 to 70 years of age and two weight groups: <75 kg and >75 kg of weight. The study participants were randomized based on criteria for an efficacy evaluable population (EEP) versus an intent to treat population (ITT). The ITT included all patients who were randomized and received at least a partial dose of ibuprofen. […] Eligible patients were randomized to one of the three treatment groups. All patients were able (but were not required) to receive morphine until approximately 45 minutes before the end of the surgical procedure. After that time, only fentanyl was allowed until the end of the operation. The first dose of ibuprofen was administered at approximately the initiation of skin closure. […] Other than ibuprofen or placebo, only morphine was administered for pain. […] Additional morphine could be administered at the discretion of the treating physician if adequate pain control had still not been achieved. Patients given non-morphine analgesics were classified as treatment failures. Treatment failures were not replaced. […] Secondary efficacy parameters were also evaluated and compared among the treatment groups using appropriate statistical methods described in the statistical analysis section of the protocol. Safety information was compared between the treatment groups using Chi-Square or Cochran-Mantel-Haenszel test. Demographic, background and baseline information among the treatment groups was also described. […] Efficacy analyses were performed on the Intent to Treat (ITT) population and the Efficacy Evaluable Population (EEP). In addition a subset of EEP patients who underwent abdominal hysterectomies (AH) were analyzed separately to evaluate efficacy in a more homogenous population.

[6] = test system: post-operative adult patients; assay: Example 1: treatment failures; settings: ITT
Protocol: Eligible patients were randomized to one of the three treatment groups. All patients were able (but were not required) to receive morphine until approximately 45 minutes before the end of the surgical procedure. After that time, only fentanyl was allowed until the end of the operation. The first dose of ibuprofen was administered at approximately the initiation of skin closure. […] Other than ibuprofen or placebo, only morphine was administered for pain. […] Additional morphine could be administered at the discretion of the treating physician if adequate pain control had still not been achieved. Patients given non-morphine analgesics were classified as treatment failures. Treatment failures were not replaced. A treatment failure was defined as a patient that required narcotic pain medication, other than morphine, or non-narcotic medications including the use of another NSAID through the treatment period. If other narcotics (other than morphine) or NSAIDS were started, ibuprofen/placebo was discontinued. In the ITT population, there was a numerical trend but not a statistically significant difference for fewer treatment failures in the ibuprofen groups compared to the placebo group: […]

[7] = 400 mg, AH (abdominal hysterectomies)
[8] = 800 mg, AH (abdominal hysterectomies)

`CC(C)Cc1ccc(C(C)C(=O)O)cc1` (centres unmarked) [Ibuprofen, 2-(4-isobutylphenyl) propionic acid] was tested. Which “VAS Score measured at Rest (median)” value ([1]; EEP, 1-Hour) did it give?
The value was 8.0.

And the “VAS Score measured at Rest, % Reduction vs Placebo” value (“VAS Score … % Reduction vs Placebo” below) ([1]; EEP, 1-Hour)?
The value was 0.0%.

And the “VAS Score measured at Rest (median)” value ([1]; EEP, 3-Hour)?
The value was 5.0.

What about the “VAS Score … % Reduction vs Placebo” value ([1]; EEP, 3-Hour) of the same compound?
Its value is 16.7%.

And the “VAS Score measured at Rest (median)” value ([1]; EEP, 6-Hour)?
The value was 4.0.

And the “VAS Score … % Reduction vs Placebo” value ([1]; EEP, 6-Hour)?
The value was 20.0%.

And the “VAS Score measured at Rest (median)” value ([1]; EEP, 9-Hour)?
The value was 3.0.

What about the “VAS Score measured at Rest (median)” value ([1]; EEP, 12-Hour) of the same compound?
Its value is 2.5.

What about the “VAS Score … % Reduction vs Placebo” value ([1]; EEP, 12-Hour) of the same compound?
The value was 16.7%.

What about the “VAS Score measured at Rest (median)” value ([1]; EEP, 15-Hour) of the same compound?
The value was 2.0.

And the “VAS Score … % Reduction vs Placebo” value ([1]; EEP, 15-Hour)?
Its value is 33.3%.

And the “VAS Score measured at Rest (median)” value ([1]; EEP, 18-Hour)?
Its value is 2.0.

What about the “VAS Score … % Reduction vs Placebo” value ([1]; EEP, 18-Hour) of the same compound?
The value was 33.3%.

What about the “VAS Score measured at Rest (median)” value ([1]; EEP, 21-Hour) of the same compound?
The value was 1.0.

What about the “VAS Score … % Reduction vs Placebo” value ([1]; EEP, 21-Hour) of the same compound?
The value was 66.7%.

What about the “VAS Score measured at Rest (median)” value ([1]; EEP, 24-Hour) of the same compound?
The value was 2.0.

What about the “VAS Score … % Reduction vs Placebo” value ([1]; EEP, 24-Hour) of the same compound?
The value was 33.3%.

And the “VAS Score measured at Rest (median)” value ([1]; ITT, 1-Hour)?
Its value is 8.0.

What about the “VAS Score … % Reduction vs Placebo” value ([1]; ITT, 1-Hour) of the same compound?
Its value is 0.0%.

And the “VAS Score measured at Rest (median)” value ([1]; ITT, 3-Hour)?
Its value is 5.7.

And the “VAS Score … % Reduction vs Placebo” value ([1]; ITT, 3-Hour)?
Its value is 5.0%.

What about the “VAS Score measured at Rest (median)” value ([1]; ITT, 6-Hour) of the same compound?
The value was 4.0.

And the “VAS Score … % Reduction vs Placebo” value ([1]; ITT, 6-Hour)?
Its value is 11.1%.

And the “VAS Score measured at Rest (median)” value ([1]; ITT, 9-Hour)?
Its value is 3.0.

What about the “VAS Score measured at Rest (median)” value ([1]; ITT, 12-Hour) of the same compound?
The value was 2.7.

And the “VAS Score … % Reduction vs Placebo” value ([1]; ITT, 12-Hour)?
Its value is 20.6%.

What about the “VAS Score measured at Rest (median)” value ([1]; ITT, 15-Hour) of the same compound?
The value was 2.0.

What about the “VAS Score … % Reduction vs Placebo” value ([1]; ITT, 15-Hour) of the same compound?
The value was 31.0%.

What about the “VAS Score measured at Rest (median)” value ([1]; ITT, 18-Hour) of the same compound?
The value was 2.0.

And the “VAS Score … % Reduction vs Placebo” value ([1]; ITT, 18-Hour)?
Its value is 31.0%.

What about the “VAS Score measured at Rest (median)” value ([1]; ITT, 21-Hour) of the same compound?
Its value is 2.0.

What about the “VAS Score … % Reduction vs Placebo” value ([1]; ITT, 21-Hour) of the same compound?
The value was 33.3%.

What about the “VAS Score measured at Rest (median)” value ([1]; ITT, 24-Hour) of the same compound?
Its value is 2.0.

What about the “VAS Score … % Reduction vs Placebo” value ([1]; ITT, 24-Hour) of the same compound?
Its value is 31.0%.

What about the “Length of hospital stay” value ([2]; EEP) of the same compound?
The value was 62.8 ± 21.58.

What about the Time to ambulation ([2]; EEP) of the same compound?
Its Time to ambulation is 23.5 ± 0.53 h.

What about the “Time to liquid intake” value ([2]; EEP) of the same compound?
The value was 12.4 ± 0.89.

And the “Time to solid diet” value ([2]; EEP)?
The value was 39.1 ± 1.42 h.

And the “Time to GI motility” value ([2]; EEP)?
The value was 9.2+0.90 hours.

And the “Length of hospital stay” value ([2]; ITT)?
The value was 62.4 ± 21.01.

What about the Time to ambulation ([2]; ITT) of the same compound?
The Time to ambulation was 23.4 ± 0.50 h.

What about the “Time to liquid intake” value ([2]; ITT) of the same compound?
Its value is 12.1 ± 0.83.

And the “Time to solid diet” value ([2]; ITT)?
Its value is 41.0 ± 2.46 h.

And the Time to ambulation ([2]; ITT, listed as IV Ibuprofen)?
The Time to ambulation was “significantly improved time to ambulation”.

What about the “Time to GI motility” value ([2]; ITT) of the same compound?
Its value is 9.4+0.87 hours.

What about the “treatment failure, time to GI motility, ambulation, liquid intake, solid diet, length of hospital stay vs placebo” value [3] of the same compound?
Its value is “no significant differences between treatment groups”.

And the “patients experiencing adverse events or serious adverse events vs placebo” value [4]?
The value was “no significant differences in the number of patients experiencing adverse events or serious adverse events between groups”.

What about the “Morphine Usage in the 24 Hours Following Surgery, % Reduction vs. PBO” value (“Morphine Usage … % Reduction vs. PBO” for short) [5, 7] of the same compound?
The value was 15.9% and 16%.

And the “Morphine Usage in the 24 Hours Following Surgery, Median” value (shortened to “Morphine Usage … Median”) [5, 7]?
Its value is 45.00.

And the “Morphine Usage … % Reduction vs. PBO” value ([5]; 400 mg, AH (abdominal hysterectomies), listed as IVIb)?
The value was 15.89%.

And the “Morphine Usage … % Reduction vs. PBO” value ([5]; 400 mg, EEP)?
Its value is 4.4%.

And the “Morphine Usage … Median” value ([5]; 400 mg, EEP)?
Its value is 43.00.

What about the “Morphine Usage … % Reduction vs. PBO” value ([5]; 400 mg, EEP, listed as IVIb) of the same compound?
The value was 4.44%.

And the “Morphine Usage … % Reduction vs. PBO” value ([5]; 400 mg, ITT)?
The value was 2.76%.

What about the “Morphine Usage … Median” value ([5]; 400 mg, ITT) of the same compound?
The value was 44.00.

What about the “Morphine Usage … % Reduction vs. PBO” value [5, 8] of the same compound?
Its value is 41.1% and 41%.

What about the “Morphine Usage … Median” value [5, 8] of the same compound?
Its value is 31.50.

What about the “Morphine Usage … % Reduction vs. PBO” value ([5]; 800 mg, AH (abdominal hysterectomies), listed as IVIb) of the same compound?
Its value is 41.12%.

And the “Morphine Usage … Median” value ([5]; 800 mg, EEP)?
Its value is 33.50.

What about the “Morphine Usage … % Reduction vs. PBO” value ([5]; 800 mg, EEP, listed as IV ibuprofen) of the same compound?
Its value is 26%.

What about the “Morphine Usage … % Reduction vs. PBO” value ([5]; 800 mg, EEP, listed as IVIb) of the same compound?
Its value is 25.56%.

What about the “Morphine Usage … % Reduction vs. PBO” value ([5]; 800 mg, ITT) of the same compound?
The value was 21.6%.

And the “Morphine Usage … Median” value ([5]; 800 mg, ITT)?
Its value is 35.50.

And the “Morphine Usage … % Reduction vs. PBO” value ([5]; 800 mg, ITT, listed as IVIb)?
The value was 21.55%.

And the “treatment failures, number of patients” value ([6]; 400 mg)?
Its value is 7.

What about the “treatment failures, percent of patients” value ([6]; 400 mg) of the same compound?
Its value is 5%.

What about the “treatment failures, number of patients” value ([6]; 800 mg) of the same compound?
Its value is 4.

What about the “treatment failures, percent of patients” value ([6]; 800 mg) of the same compound?
Its value is 3%.

— patent US20150209315A1 (Cumberland Pharmaceuticals, priority 2009, published 2015)
